Test results taken from ChEMBL document CHEMBL5518181, “Studies of antibacterial activity (in vitro and in vivo) and mode of action for des-acyl tridecaptins (DATs)” (Eur J Med Chem, 2024).
In brackets after ≈: the same amount, converted by molar mass. Activity calls are given as the source filed them. The rule behind the calls is not given here.

How the values were obtained:
Escherichia coli [1] = test: Antibacterial activity against Escherichia coli ATCC 25922 harboring tolC knock-out assessed as inhibition of bacterial growth incubated for 18 hrs; type: functional; conditions: read-out: MIC100
[2] = Chemical stability of compound at pH 2; type: physicochemical; conditions: buffer
[3] = Chemical stability of compound at pH 7.4; type: physicochemical; conditions: buffer
[4] = Chemical stability of compound in glutathione; type: physicochemical
[5] = Chemical stability of compound in mercaptoethanol; type: physicochemical
Cytochrome P450 3A4 = Cytochrome P450 3A4 (Homo sapiens, UniProt P08684); test: Inhibition of CYP3A4 (unknown origin); type: ADME
Cytochrome P450 3A4, sequence (P08684 whole entry): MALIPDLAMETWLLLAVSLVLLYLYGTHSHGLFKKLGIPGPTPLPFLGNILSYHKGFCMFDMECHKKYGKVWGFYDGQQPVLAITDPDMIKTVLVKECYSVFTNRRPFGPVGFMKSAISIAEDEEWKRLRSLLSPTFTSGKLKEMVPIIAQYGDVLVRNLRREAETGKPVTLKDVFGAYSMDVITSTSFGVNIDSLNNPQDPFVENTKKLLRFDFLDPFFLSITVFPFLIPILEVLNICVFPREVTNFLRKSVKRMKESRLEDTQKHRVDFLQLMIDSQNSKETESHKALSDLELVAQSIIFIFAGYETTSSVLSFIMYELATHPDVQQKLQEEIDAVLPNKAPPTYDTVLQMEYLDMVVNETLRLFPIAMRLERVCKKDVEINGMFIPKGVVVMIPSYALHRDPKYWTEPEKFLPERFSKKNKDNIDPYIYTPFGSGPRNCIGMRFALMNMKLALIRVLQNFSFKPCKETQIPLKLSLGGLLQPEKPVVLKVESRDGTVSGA

Cytochrome P450 2B6 = biological target: T1, Cytochrome P450 2B6 (Homo sapiens, UniProt P20813); test: Induction of CYP2B6 (unknown origin); type: ADME
T1 sequence (P20813 whole entry): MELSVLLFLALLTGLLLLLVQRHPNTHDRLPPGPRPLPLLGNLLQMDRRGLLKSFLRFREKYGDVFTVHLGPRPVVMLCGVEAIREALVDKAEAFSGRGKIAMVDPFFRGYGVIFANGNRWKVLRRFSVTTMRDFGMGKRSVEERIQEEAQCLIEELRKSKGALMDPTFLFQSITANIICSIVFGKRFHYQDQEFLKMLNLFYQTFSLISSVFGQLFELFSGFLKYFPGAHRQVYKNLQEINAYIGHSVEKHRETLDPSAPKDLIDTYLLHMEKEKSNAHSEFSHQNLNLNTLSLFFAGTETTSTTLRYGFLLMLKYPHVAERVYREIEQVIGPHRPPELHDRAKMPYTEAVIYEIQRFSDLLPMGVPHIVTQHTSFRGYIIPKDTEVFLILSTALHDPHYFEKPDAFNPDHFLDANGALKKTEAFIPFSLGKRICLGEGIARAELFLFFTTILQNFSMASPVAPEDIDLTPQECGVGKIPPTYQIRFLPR

Cytochrome P450 1A2 = biological target: T2, Cytochrome P450 1A2 (Homo sapiens, UniProt P05177); test: Inhibition of CYP1A2 (unknown origin); type: ADME
T2 sequence (P05177 whole entry): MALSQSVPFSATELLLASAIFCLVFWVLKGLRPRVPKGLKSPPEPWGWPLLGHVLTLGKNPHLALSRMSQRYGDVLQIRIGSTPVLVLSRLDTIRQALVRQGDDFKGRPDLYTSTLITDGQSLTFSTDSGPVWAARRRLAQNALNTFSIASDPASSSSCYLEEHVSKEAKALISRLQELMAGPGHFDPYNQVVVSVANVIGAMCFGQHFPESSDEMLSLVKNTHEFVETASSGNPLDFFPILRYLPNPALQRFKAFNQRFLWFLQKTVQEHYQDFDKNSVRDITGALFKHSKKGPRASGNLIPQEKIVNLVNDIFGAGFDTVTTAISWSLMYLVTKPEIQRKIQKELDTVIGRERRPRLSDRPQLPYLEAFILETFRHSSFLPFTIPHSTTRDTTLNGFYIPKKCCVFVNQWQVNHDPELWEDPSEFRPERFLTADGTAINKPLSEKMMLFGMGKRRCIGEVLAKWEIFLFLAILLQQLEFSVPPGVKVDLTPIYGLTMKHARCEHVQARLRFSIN

[6] = Clearance in mouse microsomes; type: ADME, Microsome
[7] = Clearance in human microsomes; type: ADME, Microsome
[8] = Cmax in Swiss mouse kidney at 10 mg/kg, iv administered as single bolus dose and measured upto 24 hrs by LC-MS/MS analysis; type: ADME, organism-based
[9] = Cmax in Swiss mouse lung at 10 mg/kg, iv administered as single bolus dose and measured upto 24 hrs by LC-MS/MS analysis; type: ADME, organism-based
[10] = AUClast in Swiss mouse kidney at 10 mg/kg, iv administered as single bolus dose and measured upto 24 hrs by LC-MS/MS analysis; type: ADME, organism-based
[11] = AUClast in Swiss mouse lung at 10 mg/kg, iv administered as single bolus dose and measured upto 24 hrs by LC-MS/MS analysis; type: ADME, organism-based
[12] = Observed clearance in Swiss mouse at 10 mg/kg, iv administered as single bolus dose and measured upto 24 hrs by LC-MS/MS analysis; type: ADME, organism-based; conditions: in vivo
[13] = Half life in Swiss mouse at 10 mg/kg, iv administered as single bolus dose and measured upto 24 hrs by LC-MS/MS analysis; type: ADME, organism-based; conditions: in vivo
Citrobacter freundii = test: Antibacterial activity against Citrobacter freundii ATCC 8090 assessed as inhibition of bacterial growth incubated for 18 hrs; type: functional; conditions: read-out: MIC100
Proteus mirabilis = test: Antibacterial activity against Proteus mirabilis ATCC 25933 assessed as inhibition of bacterial growth incubated for 18 hrs; type: functional; conditions: read-out: MIC100
Providencia stuartii = test: Antibacterial activity against Providencia stuartii ATCC 25826 assessed as inhibition of bacterial growth incubated for 18 hrs; type: functional; conditions: read-out: MIC100
Salmonella typhimurium = test: Antibacterial activity against Salmonella typhimurium ATCC 13311 assessed as inhibition of bacterial growth incubated for 18 hrs; type: functional, Salmonella enterica subsp. enterica serovar Typhimurium; conditions: Salmonella enterica, read-out: MIC100
Pseudomonas aeruginosa = test: Antibacterial activity against efflux-deficient Pseudomonas aeruginosa PAO750 assessed as inhibition of bacterial growth incubated for 18 hrs; type: functional; conditions: read-out: MIC100
Klebsiella pneumoniae [14] = test: Antibacterial activity against Klebsiella pneumoniae panel (100 strains) assessed as inhibition of bacterial growth; type: functional
Escherichia coli [15] = test: Antibacterial activity against Escherichia coli ATCC 25922 assessed as inhibition of bacterial growth incubated for 18 hrs in presence of 2 mM CaCl2; type: functional, organism-based
Escherichia coli [16] = test: Antibacterial activity against Escherichia coli ATCC 25922 assessed as inhibition of bacterial growth incubated for 18 hrs in presence of 2 mM MgCl2; type: functional, organism-based
Klebsiella pneumoniae [17] = test: Antibacterial activity against Klebsiella pneumoniae ATCC 13883 assessed as inhibition of bacterial growth incubated for 18 hrs in presence of 5 mM KCl; type: functional, organism-based
Klebsiella pneumoniae [18] = test: Antibacterial activity against Klebsiella pneumoniae ATCC 13883 assessed as inhibition of bacterial growth incubated for 18 hrs in presence of 25 mM bicarbonate; type: functional, organism-based
[19] = Drug localization in cytoplasm of Escherichia coli ATCC 25922 at 10 uM incubated for 10 mins by LC-MS/MS analysis; type: ADME, subcellular
Klebsiella pneumoniae [20] = test: Bactericidal activity against Klebsiella pneumoniae ATCC 13883 at 0 to 8 times MIC measured for 24 hrs by time-kill assay; type: functional, organism-based
Cell membrane [21] = test: Induction of membrane permeabilization in Escherichia coli ATCC 25922 at 32 to 64 ug/ml measured after 30 mins to 2 hrs by Sytox Green labelling based microscopic analysis; type: cell membranes; conditions: dose 32-64 µg/ml, time 0.5-2 hrs
Cell membrane [22] = test: Induction of membrane permeabilization in Klebsiella pneumoniae ATCC 13883 at 32 to 64 ug/ml measured after 30 mins by Sytox Green labelling based microscopic analysis; type: cell membranes; conditions: dose 32-64 µg/ml
[23] = Toxicity in naive mouse assessed as animal death at >15 mg/kg, iv administered as single dose every 4 hrs for 24 hrs; type: organism-based; conditions: in vivo
Klebsiella pneumoniae [24] = test: Antibacterial activity against Klebsiella pneumoniae ATCC 43816 infected in mouse urinary tract infection model at <10 mg/kg, iv administered every 4 hrs and measured after 26 hrs; type: functional, organism-based
Klebsiella pneumoniae [25] = test: Antibacterial activity against Klebsiella pneumoniae ATCC 43816 infected in mouse urinary tract infection model assessed as reduction in bacterial burden in urine at <10 mg/kg, iv administered every 4 hrs and measured after 26 hrs; type: functional, organism-based

In the case of `CC[C@H](C)[C@@H](NC(=O)[C@@H](NC(=O)[C@H](CCC(=O)O)NC(=O)[C@H](Cc1ccccc1)NC(=O)[C@@H](CCN)NC(=O)[C@H](CCN)NC(=O)[C@H](CO)NC(=O)[C@@H](Cc1c[nH]c2ccccc12)NC(=O)[C@@H](CO)NC(=O)CNC(=O)[C@@H](CCN)NC(=O)[C@H](NC(=O)[C@H](C)N)C(C)C)C(C)C)C(=O)N[C@@H](C)C(=O)O`, the MIC (Escherichia coli [1]) is reported as 1 µg/mL (≈ 0.682 µM), the Stability [2] is reported as “Stable” and the Stability [3] is reported as “Stable”. For the same compound, the Stability [4] was “Stable”, the Stability [5] was “Stable” and the “inhibition (INH)” value (Cytochrome P450 3A4) was “Not Active”. The Activity (Cytochrome P450 2B6) was “Not Active”, the “inhibition (INH)” value (Cytochrome P450 1A2) was “Not Active” and the microsomal CLint [6] was 2 µL/min/mg. The microsomal CLint [7] was 23 µL/min/mg, the Cmax [8] was 152 µg/mL and the Cmax [9] was 17 µg/mL. The AUC(0-t) at 24 h [10] was 659 µg·h/mL, the AUC(0-t) at 24 h [11] was 12.1 µg·h/mL and the clearance [12] was 2 mL/min/kg. The half-life [13] was 22.8 min, the MIC (Citrobacter freundii) was 4 µg/mL (≈ 2.73 µM) and the MIC (Proteus mirabilis) was > 32 µg/mL. The MIC (Providencia stuartii) was > 32 µg/mL, the MIC (Salmonella typhimurium) was 16 µg/mL (≈ 10.9 µM) and the MIC (Pseudomonas aeruginosa) was 32 µg/mL (≈ 21.8 µM). The MIC50 (Klebsiella pneumoniae [14]) was 8 µg/mL (≈ 5.46 µM), the MIC90 (Klebsiella pneumoniae [14]) was 32 µg/mL (≈ 21.8 µM) and the Activity (Escherichia coli [15]) was “Active”. The Activity (Escherichia coli [16]) was “Active”, the Activity (Klebsiella pneumoniae [17]) was “Active” and the Activity (Klebsiella pneumoniae [18]) was “Active”. For the same compound, the Drug uptake [19] was “Active”, the Activity (Klebsiella pneumoniae [20]) was “Active” and the Activity (Cell membrane [21]) was “Active”. The Activity (Cell membrane [22]) was “Active”, the Activity [23] was “Toxic” and the Activity (Klebsiella pneumoniae [24]) was “Active”. The Activity (Klebsiella pneumoniae [25]) was “inactive”.
